Experimental findings from PubChem BioAssay (NCI) are described below.

Among the test systems are COLO 205 colon; HCC-2998 colon; SF-268 CNS; KM12 colon; NCI/ADR-RES ovarian; SF-295 CNS; HCT-116 colon; MDA-MB-435; UACC-257 melanoma; SR leukemia.
Experiment in all cases: DTP human tumour cell line panel, 48 h

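Method: 48-hour compound exposure of cells in 96-well plates, five concentrations, linear interpolation of endpoints. GI50 = concentration required for 50% inhibition of growth. TGI marks complete inhibition of growth.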 Peptide text beside a SMILES is read from it. * marks the point of attachment. X26 = Clc1c(Cl)c(Cl)c(O*)c(Cl)c1Cl; Boc = CC(C)(C)OC(=O)*; OBn = c1ccc(CO*)cc1; Bn = c1ccc(C*)cc1 Where only a bound is given, the exact number is not on record here.

Take `O=P1(C(O)/C=C/c2ccccc2)N(Cc2ccccc2)[C@@H]2CCCC[C@H]2N1Cc1ccccc1` (some centres undefined): the TGI was found to be 6.26 µM in the assay on COLO 205 colon; 14.4 µM in the assay on HCC-2998 colon; 14.2 µM with SF-268 CNS; 19.5 µM in the assay on KM12 colon; 51.6 µM with NCI/ADR-RES ovarian; 26.8 µM in the assay on SF-295 CNS. For the same molecule, the figures for the TGI in the assay with HCT-116 colon, in the assay with MDA-MB-435 and in the assay with UACC-257 melanoma were 14 µM, 15.1 µM and 16.2 µM, respectively.
As for `O=C1/C(=C/c2ccc(Cl)cc2)CCCc2ccc(F)cc21`, the GI50 is 18.7 µM in the assay on COLO 205 colon; 21.2 µM with HCC-2998 colon; 19.9 µM in the assay with SF-268 CNS; 12.9 µM in the assay with KM12 colon; 26.6 µM in the assay on NCI/ADR-RES ovarian; 31.4 µM with SF-295 CNS. Besides, the GI50 is > 100 µM in the assay on HCT-116 colon, 20.3 µM in the assay on MDA-MB-435 and 16.7 µM in the assay with UACC-257 melanoma. Besides, the TGI was 56.3 µM in the assay on COLO 205 colon; 54.9 µM in the assay on HCC-2998 colon; 46.9 µM in the assay on SF-268 CNS; 34.2 µM in the assay on KM12 colon; 73.5 µM with NCI/ADR-RES ovarian; > 100 µM with SF-295 CNS. Also, the TGI is > 100 µM in the assay on HCT-116 colon, > 100 µM with MDA-MB-435 and 42.9 µM in the assay on UACC-257 melanoma.
As for `Cc1cc(OCc2nnc3sc(NC(=O)c4ccccc4)nn23)ccc1Cl`, the TGI is > 100 µM with COLO 205 colon; 90.2 µM in the assay with HCC-2998 colon; > 100 µM with SF-268 CNS; 52.6 µM in the assay on KM12 colon; > 100 µM in the assay on NCI/ADR-RES ovarian; > 100 µM with SF-295 CNS. Also, the TGI was > 100 µM in the assay on HCT-116 colon, 50.2 µM in the assay on MDA-MB-435 and > 100 µM in the assay with UACC-257 melanoma.
Consider `O=P(OCc1ccccc1)(OCc1ccccc1)C(O)/C=C/c1ccccc1` (centres undefined), for which the TGI with COLO 205 colon came out at 44.9 µM; in the assay with SR leukemia it was 50.7 µM; in the assay on SF-268 CNS, 42.8 µM; with KM12 colon, 43.1 µM; in the assay on NCI/ADR-RES ovarian it was 62.9 µM; with SF-295 CNS, 49.4 µM. Further, the TGI stood at 39.8 µM in the assay with HCT-116 colon, 35.1 µM with MDA-MB-435 and 38.6 µM in the assay with UACC-257 melanoma.
Consider `CC(C)CC(NC(=O)C(CCC(=O)OCc1ccccc1)NC(=O)OC(C)(C)C)C(=O)NC(COCc1ccccc1)C(=O)NC(Cc1ccccc1)C(=O)Oc1c(Cl)c(Cl)c(Cl)c(Cl)c1Cl` (centres undefined) (Boc-E(OBn)LS(Bn)F-X26; configuration not given here), for which the TGI in the assay with COLO 205 colon is 58.5 µM; with SR leukemia, 97.9 µM; in the assay on SF-268 CNS, > 100 µM; with KM12 colon it was 47.1 µM; in the assay on NCI/ADR-RES ovarian, 86.8 µM; in the assay with SF-295 CNS, 68.1 µM. For the same molecule, the total growth inhibition concentration (TGI) was found to be 31.6 µM in the assay with HCT-116 colon, 95.3 µM in the assay on MDA-MB-435 and 66.3 µM in the assay with UACC-257 melanoma.
Regarding `COc1ccc(OC)c(NC(=O)C(=O)C(C(=O)c2ccccc2F)C2OC(=O)c3ccccc32)c1` (centres undefined), the TGI in the assay with COLO 205 colon was > 100 µM; in the assay with HCC-2998 colon, > 100 µM; in the assay with SR leukemia, 89.1 µM; with SF-268 CNS, > 100 µM; with KM12 colon it was > 100 µM; in the assay with SF-295 CNS it was > 100 µM. In addition, the TGI in the assay with HCT-116 colon and in the assay with UACC-257 melanoma was > 100 µM in each case.
As for `COc1ccc(OC/C(N=Cc2ccncc2)=N/NC(=O)c2ccncc2)cc1`, the TGI in the assay on COLO 205 colon, in the assay with HCC-2998 colon, with SF-268 CNS, in the assay on KM12 colon, in the assay on NCI/ADR-RES ovarian and with SF-295 CNS was > 100 µM throughout. Further, the figures for the TGI with HCT-116 colon, in the assay on MDA-MB-435 and with UACC-257 melanoma were > 100 µM, 62.4 µM and > 100 µM, respectively.
As for `CC(C)(C)c1cc(/C=C2/NC(=O)NC2=O)cc(C(C)(C)C)c1O`, the TGI in the assay on COLO 205 colon is 28.5 µM; in the assay on SR leukemia, 33.2 µM; in the assay on SF-268 CNS, 28.8 µM; in the assay on KM12 colon, 28.5 µM; in the assay with NCI/ADR-RES ovarian, 34.1 µM; in the assay with SF-295 CNS, 29.1 µM. For the same molecule, the values for the TGI in the assay on HCT-116 colon, in the assay on MDA-MB-435 and in the assay with UACC-257 melanoma were 30.4 µM, 33.4 µM and 29.9 µM, respectively.
Consider `CCCCCCc1cc2cc(-c3csc(-c4ccc(OC)cc4)n3)c(=O)oc2cc1O`, for which the TGI in the assay with COLO 205 colon was > 100 µM; in the assay with HCC-2998 colon, 31.5 µM; in the assay on SR leukemia, > 100 µM; in the assay on SF-268 CNS it was 14.9 µM; in the assay with KM12 colon, 68.2 µM; with SF-295 CNS it was 28.5 µM. For the same molecule, the TGI with HCT-116 colon was found to be 20.1 µM; with MDA-MB-435 it was 18.4 µM; with UACC-257 melanoma, 32.6 µM.
Consider `CCN1CCN(Cc2ccc(NC(=O)Nc3ccc(-n4ccc5c(NC(=O)c6ccccc6)nccc54)cc3)cc2C(F)(F)F)CC1`, for which the GI50 was 0.942 µM in the assay with COLO 205 colon, 1.23 µM in the assay with HCC-2998 colon, 0.159 µM with SR leukemia and 0.0271 µM in the assay on KM12 colon. Besides, the total growth inhibition concentration (TGI) in the assay with COLO 205 colon was 2.51 µM; with HCC-2998 colon, 2.54 µM; in the assay with SR leukemia it was > 100 µM; in the assay on KM12 colon, 1.45 µM.
`Oc1c(OCc2nnc(CCCCCCCCc3nnc(COc4ccc5ccccc5c4O)o3)o2)ccc2ccccc12`: the TGI with COLO 205 colon, in the assay with HCC-2998 colon, in the assay on SF-268 CNS, in the assay with KM12 colon, in the assay on NCI/ADR-RES ovarian and with SF-295 CNS was > 100 µM each time. The values for the TGI in the assay with HCT-116 colon, in the assay on MDA-MB-435 and with UACC-257 melanoma were 35.6 µM, > 100 µM and > 100 µM, respectively.
As to `Cc1cnc2[nH]c(-c3cccc(F)c3)cc(=O)c2c1`, the TGI was 0.0582 µM in the assay with COLO 205 colon; 0.378 µM with SR leukemia; > 100 µM in the assay with SF-268 CNS; 1.7 µM in the assay on KM12 colon; 0.0395 µM in the assay with NCI/ADR-RES ovarian; 0.0228 µM in the assay on MDA-MB-435. For the same molecule, in the assay on UACC-257 melanoma, the TGI is > 100 µM.
Regarding `CCOC(=O)Cn1nnc2cc(Nc3c(C)[n+]([O-])c4cc(F)c(OCC)cc4[n+]3[O-])ccc21`, the TGI with SF-268 CNS, in the assay with KM12 colon, with NCI/ADR-RES ovarian, in the assay with SF-295 CNS, in the assay on HCT-116 colon and in the assay on MDA-MB-435 was > 100 µM each time. Besides, the TGI in the assay with UACC-257 melanoma is > 100 µM.
On to `C[C@H](c1ccccc1)N1C(=O)[C@@H](OCc2ccccc2)[C@H]1[C@H](COC(=O)COCc1ccccc1)OCc1ccccc1`, for which the TGI in the assay on COLO 205 colon, in the assay on SR leukemia, in the assay on SF-268 CNS, in the assay with KM12 colon, in the assay with SF-295 CNS and in the assay on HCT-116 colon was > 100 µM each time. In the assay on MDA-MB-435, the TGI is > 100 µM.
With `c1c(N2CCOCC2)ssc1=[N+]1CCOCC1`, the TGI with HCC-2998 colon, with SR leukemia, with SF-268 CNS, with KM12 colon, in the assay on SF-295 CNS and with HCT-116 colon was > 100 µM each time. Besides, the TGI in the assay on UACC-257 melanoma was > 100 µM.
On to `C=C1C[C@@H]2CC[C@@]34C[C@H]5O[C@H]6[C@@H](O3)[C@H]3O[C@H](CC[C@@H]3O[C@H]6[C@H]5O4)CC(=O)C[C@@H]3[C@@H](OC)[C@@H](C[C@H](O)CN)O[C@H]3C[C@H]3O[C@@H](CC[C@@H]1O2)C[C@@H](C)C3=C`, for which the TGI in the assay on COLO 205 colon is 0.00193 µM; in the assay on HCC-2998 colon, 0.096 µM; with SF-268 CNS, > 1 µM; in the assay with KM12 colon it was 0.0104 µM; in the assay on NCI/ADR-RES ovarian it was > 1 µM; in the assay with SF-295 CNS it was 0.251 µM. Also, the TGI was 0.101 µM in the assay on HCT-116 colon, 0.000274 µM in the assay with MDA-MB-435 and > 1 µM with UACC-257 melanoma.
As to `CC1(C)N=C(N)N=C(N)N1c1cccc(OCc2cccc(N)c2)c1`, the TGI in the assay on COLO 205 colon, in the assay on SF-268 CNS, in the assay with KM12 colon, with NCI/ADR-RES ovarian, with SF-295 CNS and in the assay on HCT-116 colon was > 100 µM throughout. Moreover, the TGI is > 100 µM in the assay with MDA-MB-435 and 55 µM in the assay with UACC-257 melanoma.
`CC(O)CNC1=CC(=O)C(=O)c2ccccc21` (centres undefined): the TGI with COLO 205 colon is 22 µM; in the assay with HCC-2998 colon, 26.5 µM; in the assay with SR leukemia it was > 100 µM; with SF-268 CNS, 33.9 µM; with KM12 colon, 56.2 µM; with SF-295 CNS, 27 µM. Further, the total growth inhibition concentration (TGI) is 33.9 µM with HCT-116 colon, 23.9 µM in the assay with MDA-MB-435 and 30.3 µM in the assay on UACC-257 melanoma.
Regarding `CC(=O)OC1CC2(O)C(CCC3(C)C(c4ccc(=O)oc4)CCC32O)C2(C)C1=CC(O)C1OC12` (centres undefined), the TGI was 0.354 µM in the assay with COLO 205 colon; 0.436 µM in the assay on HCC-2998 colon; 0.0874 µM in the assay with SF-268 CNS; 0.301 µM in the assay with KM12 colon; 0.284 µM in the assay on NCI/ADR-RES ovarian; 0.261 µM with SF-295 CNS. Further, the results for the TGI in the assay with HCT-116 colon and with UACC-257 melanoma were 0.216 µM and 0.333 µM, respectively.
For `CCCO/N=[N+](\[O-])N(CC)CC`, the TGI in the assay with HCC-2998 colon, with SR leukemia, in the assay with SF-268 CNS, in the assay with KM12 colon, with SF-295 CNS and in the assay on HCT-116 colon was > 100 µM throughout. In the assay with UACC-257 melanoma, the TGI was > 100 µM.
Consider `Nc1c(S(N)(=O)=O)cc(S(N)(=O)=O)cc1S(N)(=O)=O`, for which the TGI in the assay with COLO 205 colon, with HCC-2998 colon, in the assay with SF-268 CNS, in the assay on KM12 colon, with NCI/ADR-RES ovarian and with SF-295 CNS was > 100 µM each time. The TGI in the assay with HCT-116 colon, with MDA-MB-435 and in the assay with UACC-257 melanoma was > 100 µM throughout.
